Measured values taken from ChEMBL document CHEMBL3784915, “Design and synthesis of novel benzo[d]oxazol-2(3H)-one derivatives bearing 7-substituted-4-enthoxyquinoline moieties as c-Met kinase inhibitors” (Eur J Med Chem, 2016).
pIC50: −log10 of the molar value.

System: not listed separately
Assay: cells
Conditions: Homo sapiens, EBC-1, 72 h
Description: Cytotoxicity against human EBC1 cells assessed as inhibition of cell proliferation after 72 hrs by sulforhodamine B assay

pIC50 | Compound
6.80 | COc1ccc2c(OCCn3c(=O)oc4cc(N)ccc43)ccnc2c1
6.48 | Cc1ccc2c(c1)oc(=O)n2CCOc1ccnc2cc(OCCCCN3CCOCC3)ccc12
< 6.30 | Cc1ccc2c(c1)oc(=O)n2CCOc1ccnc2cc(OCCCN3CCCC3)ccc12
< 6.30 | COc1ccc2c(OCCn3c(=O)oc4ccc(-c5cnn(C)c5)cc43)ccnc2c1
< 6.30 | COc1ccc2c(OCCn3c(=O)oc4cc(C)ccc43)ccnc2c1
< 6.30 | COc1ccc2c(OCCn3c(=O)oc4ccc(F)cc43)ccnc2c1
7.00 | COc1ccc2c(OCCn3c(=O)oc4cc(-c5cnn(C)c5)ccc43)ccnc2c1
7.36 | C[C@@H](Oc1cc(-c2cnn(C3CCNCC3)c2)cnc1N)c1c(Cl)ccc(F)c1Cl [CRIZOTINIB]

Second part, the compound before the results:

Compound | pIC50
CN1CCN(CCCOC(=O)Nc2cccc(Cn3nc(-n4ccc5ccc(F)cc54)ccc3=O)c2)CC1 | 6.17
COC(=O)c1ccc2c(c1)oc(=O)n2CCOc1ccnc2cc(OC)ccc12 | < 6.30
Cc1ccc2c(c1)oc(=O)n2CCOc1ccnc2cc(OCCCN3CCN(C)CC3)ccc12 | 6.77
COCCOc1ccc2c(OCCn3c(=O)oc4cc(C)ccc43)ccnc2c1 | < 6.30
COc1ccc2c(OCCn3c(=O)oc4cc(F)ccc43)ccnc2c1 | < 6.30
Cc1ccc2c(c1)oc(=O)n2CCOc1ccnc2cc(NCCCN3CCOCC3)ccc12 | 7.24
COc1ccc2c(OCCn3c(=O)oc4ccc(C)cc43)ccnc2c1 | < 6.30
Cc1ccc2c(c1)oc(=O)n2CCOc1ccnc2cc(OCCN3CCOCC3)ccc12 | 6.92
COC(=O)c1ccc2oc(=O)n(CCOc3ccnc4cc(OC)ccc34)c2c1 | < 6.30
Cn1cc(-c2ccc3c(OCCn4c(=O)oc5cc(-c6cnn(C)c6)ccc54)ccnc3c2)cn1 | 8.30
COc1ccc2c(OCCn3c(=O)oc4cc(N5CCOCC5)ccc43)ccnc2c1 | < 6.30
COc1ccc2c(OCCn3c(=O)oc4cc(OC)ccc43)ccnc2c1 | < 6.30
Cc1ccc2c(c1)oc(=O)n2CCOc1ccnc2cc(OCCCN3CCOCC3)ccc12 | 6.77
Cc1ccc2c(c1)oc(=O)n2Cc1cccc(NC(=O)OCCCN2CCOCC2)c1 | 5.80
Cc1ccc2c(c1)oc(=O)n2CCOc1ccnc2cc(-c3cnn(C)c3)ccc12 | 7.46

Molecular target: Hepatocyte growth factor receptor (Homo sapiens, UniProt P08581)
Sequence (P08581 whole entry): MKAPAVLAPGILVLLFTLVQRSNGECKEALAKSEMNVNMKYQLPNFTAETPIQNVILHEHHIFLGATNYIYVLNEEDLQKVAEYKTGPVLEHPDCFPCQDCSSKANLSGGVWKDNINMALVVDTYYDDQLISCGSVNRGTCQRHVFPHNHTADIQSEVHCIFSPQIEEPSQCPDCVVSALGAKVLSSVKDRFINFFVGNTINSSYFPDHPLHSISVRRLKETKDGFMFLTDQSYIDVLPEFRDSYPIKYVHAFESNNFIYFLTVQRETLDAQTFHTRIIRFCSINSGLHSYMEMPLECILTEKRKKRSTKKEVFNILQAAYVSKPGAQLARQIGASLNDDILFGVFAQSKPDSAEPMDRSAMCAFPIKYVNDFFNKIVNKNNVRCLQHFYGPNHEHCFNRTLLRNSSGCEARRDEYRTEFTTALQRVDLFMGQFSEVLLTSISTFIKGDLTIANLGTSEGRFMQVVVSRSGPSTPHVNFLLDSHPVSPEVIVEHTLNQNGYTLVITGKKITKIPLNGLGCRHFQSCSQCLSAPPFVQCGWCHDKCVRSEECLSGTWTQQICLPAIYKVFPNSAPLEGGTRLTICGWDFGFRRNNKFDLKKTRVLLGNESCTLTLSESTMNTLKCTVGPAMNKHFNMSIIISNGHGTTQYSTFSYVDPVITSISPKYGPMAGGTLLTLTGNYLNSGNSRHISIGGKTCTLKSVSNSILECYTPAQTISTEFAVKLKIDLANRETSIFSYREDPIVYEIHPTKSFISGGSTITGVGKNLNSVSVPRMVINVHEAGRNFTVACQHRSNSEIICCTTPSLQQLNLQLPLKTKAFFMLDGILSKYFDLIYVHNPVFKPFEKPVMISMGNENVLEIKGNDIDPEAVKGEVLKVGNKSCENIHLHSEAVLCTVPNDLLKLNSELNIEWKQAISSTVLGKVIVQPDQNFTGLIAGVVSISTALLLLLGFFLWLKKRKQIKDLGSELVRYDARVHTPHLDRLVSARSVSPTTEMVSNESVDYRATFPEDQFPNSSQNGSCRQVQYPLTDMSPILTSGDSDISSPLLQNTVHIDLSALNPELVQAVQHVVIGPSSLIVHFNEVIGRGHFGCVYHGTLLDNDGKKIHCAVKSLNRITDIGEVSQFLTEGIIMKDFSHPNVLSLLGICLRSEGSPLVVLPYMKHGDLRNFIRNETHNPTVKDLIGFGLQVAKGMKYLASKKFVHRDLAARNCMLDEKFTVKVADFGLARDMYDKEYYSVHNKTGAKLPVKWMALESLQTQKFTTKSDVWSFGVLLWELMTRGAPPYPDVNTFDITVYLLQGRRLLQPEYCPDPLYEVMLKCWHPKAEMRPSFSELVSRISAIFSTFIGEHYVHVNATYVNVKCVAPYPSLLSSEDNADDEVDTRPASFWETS
Assay: Inhibition of N-terminal 6His-tagged human recombinant c-MET expressed in baculovirus infected Sf21 cells using poly Ala-Glu-Lys-Tyr (6:2:5:1) as substrate after 3 hrs by scintillation counting in presence of [33P]-ATP
Conditions: not given

pIC50 | Compound
5.80 | Cc1ccc2c(c1)oc(=O)n2Cc1cccc(NC(=O)OCCCN2CCOCC2)c1
